For test [1], the target named is T1, Nav1.7 (or SCN9A) channel (Homo sapiens, UniProt Q15858).
T1 construct: expressed in transfected cells
Put plainly: Nav1.7 (hSCN9A) electrophysiology assay, Ionworks Quattro platform. The format is cell-based. The settings on record: IW: Ionworks Quattro automated electrophysiological platform; HEK cells stably expressing hSCN9A; read-out: Nav1.7 EIC50. A general note: Patch clamp records ionic current or voltage across a cell membrane.

Test [2] has as its target T1, Nav1.7 (or SCN9A) channel. Put plainly: Nav1.7 (hSCN9A) electrophysiology assay, PatchXpress platform. The note with it: estimated IC50 from single point electrophysiology data, HEK cells stably expressing hSCN9A, held at V1/2 of inactivation, read-out: Nav1.7 EIC50. The class given is cell-based. The essentials: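 HEK cells stably expressing hSCN9A were recorded by whole-cell voltage clamp, including on PatchXpress, at 22–24°C with extracellular solution at pH 7.4. A 20 msec step to 0 mV followed an 8 s conditioning prepulse to the empirically determined inactivation V1/2. Inhibition was taken from current amplitude before vs after compound.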

A value given as a limit tells only on which side of the number the result lay.

T1 sequence (Q15858 whole entry): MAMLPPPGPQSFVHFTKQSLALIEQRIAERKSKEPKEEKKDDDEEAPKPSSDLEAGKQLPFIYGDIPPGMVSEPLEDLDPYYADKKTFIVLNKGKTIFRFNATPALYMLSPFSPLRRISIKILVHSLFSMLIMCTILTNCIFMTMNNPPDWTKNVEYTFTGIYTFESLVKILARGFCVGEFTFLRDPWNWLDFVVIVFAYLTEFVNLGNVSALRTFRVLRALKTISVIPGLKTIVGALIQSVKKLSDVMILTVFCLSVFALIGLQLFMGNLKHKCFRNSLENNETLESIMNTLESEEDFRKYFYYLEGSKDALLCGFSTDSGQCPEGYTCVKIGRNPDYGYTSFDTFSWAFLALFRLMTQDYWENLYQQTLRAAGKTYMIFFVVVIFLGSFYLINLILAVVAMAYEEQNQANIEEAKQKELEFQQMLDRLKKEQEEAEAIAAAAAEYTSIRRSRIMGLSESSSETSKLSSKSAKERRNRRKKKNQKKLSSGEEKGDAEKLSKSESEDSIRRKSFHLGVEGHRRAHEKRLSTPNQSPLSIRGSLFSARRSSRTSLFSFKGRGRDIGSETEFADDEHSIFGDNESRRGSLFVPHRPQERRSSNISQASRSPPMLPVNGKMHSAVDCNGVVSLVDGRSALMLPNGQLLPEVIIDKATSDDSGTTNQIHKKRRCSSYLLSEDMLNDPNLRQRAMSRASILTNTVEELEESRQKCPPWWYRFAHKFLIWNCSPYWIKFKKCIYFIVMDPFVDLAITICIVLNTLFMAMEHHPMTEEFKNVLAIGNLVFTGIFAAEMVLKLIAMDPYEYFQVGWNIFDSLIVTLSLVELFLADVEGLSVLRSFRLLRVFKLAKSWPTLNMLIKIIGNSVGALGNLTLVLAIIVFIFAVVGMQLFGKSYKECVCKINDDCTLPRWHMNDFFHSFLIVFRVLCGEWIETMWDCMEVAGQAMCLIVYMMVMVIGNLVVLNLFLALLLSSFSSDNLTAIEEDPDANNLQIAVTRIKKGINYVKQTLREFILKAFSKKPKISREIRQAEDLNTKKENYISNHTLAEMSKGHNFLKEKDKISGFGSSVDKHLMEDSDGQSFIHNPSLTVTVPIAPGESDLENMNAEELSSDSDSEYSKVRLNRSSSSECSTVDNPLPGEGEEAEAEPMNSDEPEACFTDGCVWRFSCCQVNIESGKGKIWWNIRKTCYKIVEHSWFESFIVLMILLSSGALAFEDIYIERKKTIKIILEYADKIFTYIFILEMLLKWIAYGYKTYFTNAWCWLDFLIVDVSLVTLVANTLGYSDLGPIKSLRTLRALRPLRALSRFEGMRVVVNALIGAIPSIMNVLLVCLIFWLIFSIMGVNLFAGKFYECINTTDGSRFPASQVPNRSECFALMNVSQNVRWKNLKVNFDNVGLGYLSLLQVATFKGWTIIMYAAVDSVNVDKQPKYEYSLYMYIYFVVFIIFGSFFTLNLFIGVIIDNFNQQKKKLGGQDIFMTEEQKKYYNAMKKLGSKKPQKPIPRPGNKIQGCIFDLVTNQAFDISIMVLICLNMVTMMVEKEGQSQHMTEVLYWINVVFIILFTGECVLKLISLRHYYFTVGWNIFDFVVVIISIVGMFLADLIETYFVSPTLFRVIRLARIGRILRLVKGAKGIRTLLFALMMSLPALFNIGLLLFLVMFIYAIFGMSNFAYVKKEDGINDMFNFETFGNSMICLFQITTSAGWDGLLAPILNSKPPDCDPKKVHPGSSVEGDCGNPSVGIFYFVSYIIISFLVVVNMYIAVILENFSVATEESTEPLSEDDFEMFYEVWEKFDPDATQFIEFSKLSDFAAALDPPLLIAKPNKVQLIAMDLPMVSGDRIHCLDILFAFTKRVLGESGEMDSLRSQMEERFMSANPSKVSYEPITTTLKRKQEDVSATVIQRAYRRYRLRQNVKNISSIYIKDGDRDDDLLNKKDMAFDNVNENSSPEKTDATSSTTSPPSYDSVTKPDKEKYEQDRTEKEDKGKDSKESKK

`COc1ccc(OCc2ccc(C(=O)NS(C)(=O)=O)cc2)cc1` [Example 31, 4-[(4-Methoxyphenoxy)methyl]-N-(methylsulfonyl)benzamide]: the IC50 in test [1] turned out to be 22 µM.
For `COc1ccc(COc2cc(F)c(C(=O)NS(C)(=O)=O)cc2F)cc1` [Example 198, 2,5-difluoro-4-[(4-methoxybenzyl)oxy]-N-(methylsulfonyl)benzamide], the IC50 in test [2] is more than 1 µM.
In the case of `CS(=O)(=O)NC(=O)c1cc(F)c(OCc2ccccc2F)cc1F` [Example 199, 2,5-difluoro-4-[(2-fluorobenzyl)oxy]-N-(methylsulfonyl)benzamide], the IC50 in test [2] was 2.4 µM.
Consider `COc1cc(C)ccc1COc1cc(F)c(C(=O)NS(C)(=O)=O)cc1F` [Example 200, 2,5-difluoro-4-[(2-methoxy-4-methylbenzyl)oxy]-N-(methylsulfonyl)benzamide], for which the IC50 in test [2] is 5 µM.
On the same count and under the same terms, the figure for `COc1cc(COc2cc(F)c(C(=O)NS(C)(=O)=O)cc2F)cc(OC)c1` [Example 201, 4-[(3,5-dimethoxybenzyl)oxy]-2,5-difluoro-N-(methylsulfonyl)benzamide] is more than 1 µM.
As to `COc1ccc(OC)c(COc2cc(F)c(C(=O)NS(C)(=O)=O)cc2F)c1` [Example 202, 4-[(2,5-dimethoxybenzyl)oxy]-2,5-difluoro-N-(methylsulfonyl)benzamide], in test [2], the IC50 is 11 µM.
As to `Cc1ccc(COc2cc(F)c(C(=O)NS(C)(=O)=O)cc2F)cc1C` [Example 203, 4-[(3,4-dimethylbenzyl)oxy]-2,5-difluoro-N-(methylsulfonyl)benzamide], in test [2], the IC50 was 1.7 µM.
As for `CS(=O)(=O)NC(=O)c1ccc(OCc2ccc(F)cc2F)cc1` [Example 204, 4-[(2,4-difluorobenzyl)oxy]-N-(methylsulfonyl)benzamide], the IC50 in test [2] is 3.6 µM.
Take `COc1ccc(F)c(COc2cc(F)c(C(=O)NS(C)(=O)=O)cc2F)c1` [Example 205, 2,5-difluoro-4-[(2-fluoro-5-methoxybenzyl)oxy]-N-(methylsulfonyl)benzamide]: the IC50 in test [2] is more than 3 µM.
On the same count and under the same terms, as for `COc1cccc(COc2cc(F)c(C(=O)NS(C)(=O)=O)cc2F)c1OC` [Example 206, 4-[(2,3-dimethoxybenzyl)oxy]-2,5-difluoro-N-(methylsulfonyl)benzamide], the figure is more than 1 µM; as for `CS(=O)(=O)NC(=O)c1cc(F)c(OCc2cccc(Cl)c2)cc1F` [Example 207, 4-[(3-chlorobenzyl)oxy]-2,5-difluoro-N-(methylsulfonyl)benzamide], more than 0.3 µM; as for `CS(=O)(=O)NC(=O)c1ccc(OCc2cc(F)ccc2F)cc1` [Example 208, 4-[(2,5-difluorobenzyl)oxy]-N-(methylsulfonyl)benzamide], 2.6 µM.
Consider `COc1ccc(C)cc1COc1ccc(C(=O)NS(C)(=O)=O)cc1` [Example 210, 4-[(2-methoxy-5-methylbenzyl)oxy]-N-(methylsulfonyl)benzamide], for which the IC50 in test [2] was more than 1 µM.
With `CS(=O)(=O)NC(=O)c1cc(F)c(OCc2ccc(OC(F)F)cc2)cc1F` [Example 211, 4-{[4-(difluoromethoxy)benzyl]oxy}-2,5-difluoro-N-(methylsulfonyl)benzamide], the IC50 in test [2] is 2.6 µM.
Turning to `CS(=O)(=O)NC(=O)c1cc(F)c(OCc2ccc(OC(F)(F)F)cc2)cc1F` [Example 212, 2,5-difluoro-N-(methylsulfonyl)-4-{[4-(trifluoromethoxy)benzyl]oxy}benzamide], the IC50 in test [2] was more than 0.3 µM.
Take `CS(=O)(=O)NC(=O)c1ccc(OCc2ccc(Cl)cc2F)cc1` [Example 213, 4-[(4-chloro-2-fluorobenzyl)oxy]-N-(methylsulfonyl)benzamide]: the IC50 in test [2] is more than 0.3 µM.
Turning to `CS(=O)(=O)NC(=O)c1cc(F)c(OCc2cccc(Cl)c2Cl)cc1F` [Example 214, 4-[(2,3-dichlorobenzyl)oxy]-2,5-difluoro-N-(methylsulfonyl)benzamide], the IC50 in test [2] was 3.8 µM.
Take `COc1cc(F)ccc1COc1cc(F)c(C(=O)NS(C)(=O)=O)cc1F` [Example 215, 2,5-difluoro-4-[(4-fluoro-2-methoxybenzyl)oxy]-N-(methylsulfonyl)benzamide]: the IC50 in test [2] was more than 1 µM.
Still for that read-out and setting: as for `CS(=O)(=O)NC(=O)c1cc(F)c(OCc2ccc(F)cc2)cc1F` [Example 216, 2,5-difluoro-4-[(4-fluorobenzyl)oxy]-N-(methylsulfonyl)benzamide], the figure is 3.8 µM; as for `Cc1cccc(COc2cc(F)c(C(=O)NS(C)(=O)=O)cc2F)c1` [Example 217, 2,5-difluoro-4-[(3-methylbenzyl)oxy]-N-(methylsulfonyl)benzamide], more than 1 µM.
Same read-out and setting: the figure for `CS(=O)(=O)NC(=O)c1cc(F)c(OCc2ccccc2OC(F)F)cc1F` [Example 218, 4-{[2-(difluoromethoxy)benzyl]oxy}-2,5-difluoro-N-(methylsulfonyl)benzamide] is 3.4 µM.
Same read-out and setting: as for `COc1ccc(C)cc1COc1cc(F)c(C(=O)NS(C)(=O)=O)cc1F` [Example 219, 2,5-difluoro-4-[(2-methoxy-5-methylbenzyl)oxy]-N-(methylsulfonyl)benzamide], the figure is more than 1 µM; as for `CS(=O)(=O)NC(=O)c1cc(F)c(OCc2ccccc2C(F)(F)F)cc1F` [Example 220, 2,5-difluoro-N-(methylsulfonyl)-4-{[2-(trifluoromethyl)benzyl]oxy}benzamide], 1.7 µM; as for `CS(=O)(=O)NC(=O)c1cc(F)c(OCc2ccccc2Cl)cc1F` [Example 221, 4-[(2-chlorobenzyl)oxy]-2,5-difluoro-N-(methylsulfonyl)benzamide], 1.8 µM.
For `COc1cc(COc2cc(F)c(C(=O)NS(C)(=O)=O)cc2F)ccc1C` [Example 222, 2,5-difluoro-4-[(3-methoxy-4-methylbenzyl)oxy]-N-(methylsulfonyl)benzamide], the IC50 in test [2] is 3.6 µM.
Regarding `COc1ccc(Cl)cc1COc1ccc(C(=O)NS(C)(=O)=O)cc1` [Example 223, 4-[(5-chloro-2-methoxybenzyl)oxy]-N-(methylsulfonyl)benzamide], in test [2], the IC50 is more than 0.3 µM.
Same read-out and setting: as for `CS(=O)(=O)NC(=O)c1cc(F)c(OCc2cccc(OC(F)F)c2)cc1F` [Example 224, 4-{[3-(difluoromethoxy)benzyl]oxy}-2,5-difluoro-N-(methylsulfonyl)benzamide], the figure is more than 0.3 µM.
As for `CS(=O)(=O)NC(=O)c1cc(F)c(OCc2ccc(Cl)cc2)cc1F` [Example 225, 4-[(4-chlorobenzyl)oxy]-2,5-difluoro-N-(methylsulfonyl)benzamide], the IC50 in test [2] was more than 0.3 µM.
Still for that read-out and setting: the figure for `CCOc1ccccc1COc1cc(F)c(C(=O)NS(C)(=O)=O)cc1F` [Example 226, 4-[(2-ethoxybenzyl)oxy]-2,5-difluoro-N-(methylsulfonyl)benzamide] is more than 1 µM.
As to `CS(=O)(=O)NC(=O)c1cc(F)c(OCc2ccc3ccccc3c2)cc1F` [Example 227, 2,5-difluoro-N-(methylsulfonyl)-4-(2-naphthylmethoxy)benzamide], in test [2], the IC50 is 0.94 µM.
The same measure, in the same setting: the figure for `Cc1ccc(COc2cc(F)c(C(=O)NS(C)(=O)=O)cc2F)cc1Cl` [Example 228, 4-[(3-chloro-4-methylbenzyl)oxy]-2,5-difluoro-N-(methylsulfonyl)benzamide] is 1.2 µM.
For `CS(=O)(=O)NC(=O)c1cc(F)c(OCc2cc(F)ccc2F)cc1F` [Example 229, 4-[(2,5-difluorobenzyl)oxy]-2,5-difluoro-N-(methylsulfonyl)benzamide], the IC50 in test [2] is more than 1 µM.
Still for that read-out and setting: as for `COc1ccc(Cl)cc1COc1cc(F)c(C(=O)NS(C)(=O)=O)cc1F` [Example 230, 4-[(5-chloro-2-methoxybenzyl)oxy]-2,5-difluoro-N-(methylsulfonyl)benzamide], the figure is 2.2 µM; as for `CS(=O)(=O)NC(=O)c1cc(F)c(OCc2ccc(Cl)cc2F)cc1F` [Example 231, 4-[(4-chloro-2-fluorobenzyl)oxy]-2,5-difluoro-N-(methylsulfonyl)benzamide], 1.4 µM; as for `CS(=O)(=O)NC(=O)c1cc(F)c(OCc2ccc(F)cc2Cl)cc1F` [Example 232, 4-[(2-chloro-4-fluorobenzyl)oxy]-2,5-difluoro-N-(methylsulfonyl)benzamide], 2.1 µM.
In the case of `COc1ccccc1COc1cc(F)c(C(=O)NS(C)(=O)=O)cc1F` [Example 233, 2,5-difluoro-4-[(2-methoxybenzyl)oxy]-N-(methylsulfonyl)benzamide], the IC50 in test [2] was more than 1 µM.

Source of the values: US9096500B2, “Acyl sulfonamide compounds” (Pfizer Limited, priority 2010, dated 2015).
